The values that follow come from paper PMC9890698 (BMC Biology, 2023).

The target in test [1] is T1, Human P2Y1-R (Homo sapiens, UniProt P47900).
T1 construct: expressed in transfected cells; host or cells: HEK293T/17
Kind of test: β-arrestin 2 recruitment BRET1 assay (β-arrestin 2-RLuc / P2Y1-R-Venus) in HEK293T cells. Conditions: for b-arrestin 2 signaling, Ligand-modulated BRET (% of maximum MRS2179 mean value): Figure 4b, individual replicates; for Effect on β-arrestin 2 recruitment / BRET signal between P2Y1-R-Venus and β-arrestin 2-RLuc: HEK293T cells, high P2Y1-R expression, result in words; for EC50 / pEC50 ± s.e.m.: β-Arrestin 2 signaling, Fig. 4b, 15 min. The class given is cell-based. From the text:
We assessed β-arrestin 2 recruitment to the receptor using BRET^1 assay. The assay measures the interaction between β-arrestin 2 fused to the Renilla reniformis luciferase (RLuc) energy donor and the receptor fused to fluorescent Venus energy acceptor (Fig. 3a). The recruitment of cytosolic β-arrestin 2 to the receptor at the plasma membrane in the presence of an agonist will promote a significant increase of the BRET signal compared to the basal state, reflecting the close proximity between the β-arrestin 2 energy donor and the receptor energy acceptor [22].
Human P2Y1-R (NCBI Reference Sequence: NM_002563.2) and P2Y12-R (NCBI Reference Sequence: NM_022788.3) were fused to double Myc epitope and rat AT1-R (NCBI Reference Sequence: NM_030985.4) to HA tag in N-terminus extracellular region. Alternatively, receptors were also fused to Venus tag in C-terminus intracellular region. Plasmids encoding Gαq-RLuc8, GFP2-Gγ2 and untagged Gβ1 were previously described. ADP was purchased from Sigma-Aldrich/Merck (Darmstadt, Germany). […] The Gq inhibitor (FR900359) was kindly supplied by Evi Kostenis (University of Bonn. Germany).
G protein activation and β-arrestin 2 recruitment were performed as previously described. Briefly, vectors encoding receptors, Gαq-RLuc8, GFP2-Gγ2, Gβ1, or β-arrestin 2 were transiently cotransfected into HEK293T/17 cells as indicated in the figure legends. Forty-eight hours after transfection, cells were washed and resuspended in PBS containing 0.1% (w/v) glucose at room temperature and then distributed (80 μg proteins/well) in a 96-well microplate (PerkinElmer). For G protein activation experiments (BRET^2), cells were incubated in the absence (basal BRET signal) or in the presence of ligand for 1 minute. BRET signal between RLuc8 and GFP2 was measured after addition of the luciferase substrate coelenterazine 400a (5 μM). For β-arrestin 2 recruitment (BRET^1), cells were stimulated with ligands for 5 or 15 min. BRET signal was recorded after incubation with coelenterazine h (5 μM) for 8 min. For kinetics studies, BRET signal between RLuc and Venus was recorded at 20-s intervals at basal state for the 2 first minutes and then for 5 min after ligand injection. For saturation curves (BRET^1), the expression level of Venus- or RLuc-tagged protein was determined by direct measurement of total fluorescence and luminescence respectively. Total fluorescence was first measured with an excitation filter at 485 nm and an emission filter at 520 nm. Then, the same sample was incubated for 8 minutes with 5 μM coelenterazine h and the total luminescence was measured. BRET^2 and BRET^1 readings were collected using a modified Infinite F500 (Tecan Group Ltd). The BRET^2 signal was calculated by the ratio of emission of GFP2 (510–540 nm) to RLuc8 (370–450 nm) and the BRET^1 signal by the ratio of emission of Venus (520–570 nm) to RLuc (370–480 nm). Sometimes, results are expressed as the Net BRET computed by deducting the BRET background signal (obtained in the presence of the energy donor alone) from the BRET signal (acquired from cells expressing both the energy donor and acceptor).

In another test the target is T2, Human P2Y12-R (Homo sapiens, UniProt Q9H244).
T2 construct: expressed in transfected cells; host or cells: HEK293T/17
Briefly: β-arrestin 2 recruitment BRET1 assay (β-arrestin 2-RLuc / P2Y12-R-Venus) in HEK293T cells. The class given is cell-based. To be noted: 10 μM, 5 min, result in words. From the text: We assessed β-arrestin 2 recruitment to the receptor using BRET^1 assay. The assay measures the interaction between β-arrestin 2 fused to the Renilla reniformis luciferase (RLuc) energy donor and the receptor fused to fluorescent Venus energy acceptor (Fig. 3a). The recruitment of cytosolic β-arrestin 2 to the receptor at the plasma membrane in the presence of an agonist will promote a significant increase of the BRET signal compared to the basal state, reflecting the close proximity between the β-arrestin 2 energy donor and the receptor energy acceptor [22]. […]
G protein activation and β-arrestin 2 recruitment were performed as previously described. […] BRET signal between RLuc8 and GFP2 was measured after addition of the luciferase substrate coelenterazine 400a (5 μM). […] BRET signal was recorded after incubation with coelenterazine h (5 μM) for 8 min. For kinetics studies, BRET signal between RLuc and Venus was recorded at 20-s intervals at basal state for the 2 first minutes and then for 5 min after ligand injection. For saturation curves (BRET^1), the expression level of Venus- or RLuc-tagged protein was determined by direct measurement of total fluorescence and luminescence respectively. Total fluorescence was first measured with an excitation filter at 485 nm and an emission filter at 520 nm. […] BRET^2 and BRET^1 readings were collected using a modified Infinite F500 (Tecan Group Ltd). […]
On the technique in general: Activated receptors often draw arrestin, which recruitment assays turn into a signal.

Test [2] concerns the target T1, Human P2Y1-R. Briefly: IP1 accumulation assay (HTRF) in HEK293T cells expressing P2Y1-R. To be noted: ADP 100 μM, MRS2179 10 μM, Gq inhibitor 100 nM, 2 h, result in words. The class given is cell-based. Background: TR-FRET usually uses a lanthanide donor and a delayed reading to cut background.
Description: Since Gαq protein activation is known to induce PLC activation leading to IP3 and subsequent cytosolic calcium release, we analyzed the constitutive Gαq-dependent P2Y1-R signaling by quantifying intracellular inositol monophosphate (IP1) using a monoclonal antibody-based competitive ELISA. IP1 is a downstream metabolite of IP3 that accumulates in cells following Gαq protein-coupled receptor activation, making it an ideal readout for Gαq protein-dependent signaling pathways.
For test [3], the system named is washed murine platelets (P2Y1-R/Gαq signaling). Kind of test: IP1 accumulation assay (HTRF) in washed murine platelets. The class given is cell-based, mouse. To be noted: washed murine platelets, ADP 100 μM, MRS2179 10 μM, Gq inhibitor 100 nM, 2 h, apyrase 0.02 U/mL, result in words. The protocol:
As performed in HEK293T cells, we thus quantified intracellular IP1 levels to monitor Gαq protein-dependent signaling pathways.
Platelet-rich plasma (PRP) was obtained by mixing blood with 1 volume of modified Hepes Tyrode’s buffer (137 mM NaCl, 2 mM KCl, 12 mM NaHCO3, 0.3 mM NaH2PO4, 1 mM MgCl2, 2 mM CaCl2, 5.5 mM glucose, 5 mM HEPES, and 0.35% (w/v) BSA, pH 6.7) followed by a centrifugation at 150 g for 2 min at 37 °C. Then, platelets were pelleted by centrifugation at 1000 g for 4 min, resuspended in modified Hepes Tyrode’s buffer (pH 7.4), adjusted to 3.10^8 platelets/mL in the presence of 0.02 U/mL of apyrase and 10 μM indomethacin and rested for 45 minutes at 37°C before platelet stimulation. PGI2 (0.5 μM) was added before centrifugation steps to avoid platelet activation.
Quantification of intracellular IP1 was performed using the HTRF (Homogeneous Time Resolved Fluorescence) IP1 competitive immunoassay (IP-One Tb kit. Cisbio. France) according to the manufacturer’s instructions. Briefly, 20,000 HEK293T/17 cells or 3.10^6 platelets were distributed in a 384-well white microplate (Greiner) and incubated with the indicated molecules for 30 min or 2 h at 37 °C in the presence of 50 mM of LiCl to prevent IP1 degradation. After addition of d2-labeled IP1 (acceptor) and anti-IP1-Cryptate (donor) for 1 h, the specific FRET signals were calculated by the fluorescence ratio of the acceptor and donor emission signal (665/620 nm) collected using a modified Infinite F500 (Tecan Group Ltd). Conversion of the HTRF ratio of each sample into IP1 concentrations was performed on the basis of a standard curve to determine the linear dynamic range of the assay.

Structures are written as SMILES. Several values for one entry are separate records, joined by “and”; a condition that tells them apart may be missing. Equal entries are not always repeated.

T1 sequence (P47900 whole entry): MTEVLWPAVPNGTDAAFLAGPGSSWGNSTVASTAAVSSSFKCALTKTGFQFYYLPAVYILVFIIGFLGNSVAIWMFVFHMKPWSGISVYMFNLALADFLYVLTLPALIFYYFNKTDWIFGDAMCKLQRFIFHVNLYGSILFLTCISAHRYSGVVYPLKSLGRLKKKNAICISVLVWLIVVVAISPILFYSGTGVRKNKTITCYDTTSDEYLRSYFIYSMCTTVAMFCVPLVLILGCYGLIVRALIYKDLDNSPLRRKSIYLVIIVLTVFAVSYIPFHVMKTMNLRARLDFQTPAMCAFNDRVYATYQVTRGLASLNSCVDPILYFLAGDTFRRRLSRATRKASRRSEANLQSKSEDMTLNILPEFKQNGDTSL
T2 sequence (Q9H244 whole entry): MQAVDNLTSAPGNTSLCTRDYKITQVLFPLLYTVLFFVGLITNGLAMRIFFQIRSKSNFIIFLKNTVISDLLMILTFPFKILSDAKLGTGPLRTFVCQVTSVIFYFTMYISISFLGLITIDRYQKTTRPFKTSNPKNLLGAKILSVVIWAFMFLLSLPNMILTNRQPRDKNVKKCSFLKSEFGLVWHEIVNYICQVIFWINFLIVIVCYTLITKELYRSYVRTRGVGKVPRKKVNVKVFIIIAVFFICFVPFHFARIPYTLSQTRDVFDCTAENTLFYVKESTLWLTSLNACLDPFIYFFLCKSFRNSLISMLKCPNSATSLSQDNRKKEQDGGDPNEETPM

A word on the EC50: it is the concentration needed to bring the measured effect to its halfway point. Higher therefore signals lower potency in that assay. In the case of `CNc1nc(Cl)nc2c1ncn2[C@H]1CC(OP(=O)(O)O)[C@]2(COP(=O)(O)O)C[C@H]12` (stereo in doubt) [MRS2279], the “b-arrestin 2 signaling, Ligand-modulated BRET (% of maximum MRS2179 mean value)” value is -69.6106 % of maximum MRS2179 mean value and -105.156 % of maximum MRS2179 mean value and -85.2747 % of maximum MRS2179 mean value and -86.0383 % of maximum MRS2179 mean value and -102.622 % of maximum MRS2179 mean value at Human P2Y1-R [1] ([Ligand] 1.00E-04 M); -58.9493 % of maximum MRS2179 mean value and -35.292 % of maximum MRS2179 mean value and -0.8674 % of maximum MRS2179 mean value and -67.8538 % of maximum MRS2179 mean value and -74.7757 % of maximum MRS2179 mean value on Human P2Y1-R [1] ([Ligand] 1.00E-05 M); -39.831 % of maximum MRS2179 mean value and -16.8165 % of maximum MRS2179 mean value and 4.878 % of maximum MRS2179 mean value and -40.0637 % of maximum MRS2179 mean value and -56.9245 % of maximum MRS2179 mean value on Human P2Y1-R [1] ([Ligand] 1.00E-06 M); -39.6457 % of maximum MRS2179 mean value and -31.8109 % of maximum MRS2179 mean value and -14.3137 % of maximum MRS2179 mean value and -31.2635 % of maximum MRS2179 mean value and -51.8509 % of maximum MRS2179 mean value at Human P2Y1-R [1] ([Ligand] 1.00E-07 M); -22.0748 % of maximum MRS2179 mean value and -36.9002 % of maximum MRS2179 mean value and -1.913 % of maximum MRS2179 mean value and -12.8092 % of maximum MRS2179 mean value and -19.8439 % of maximum MRS2179 mean value at Human P2Y1-R [1] ([Ligand] 1.00E-08 M); -17.6957 % of maximum MRS2179 mean value and -18.0324 % of maximum MRS2179 mean value and -16.7903 % of maximum MRS2179 mean value and 1.141 % of maximum MRS2179 mean value and 5.256 % of maximum MRS2179 mean value on Human P2Y1-R [1] ([Ligand] 1.00E-09 M). Moreover, the “b-arrestin 2 signaling, Ligand-modulated BRET (% of maximum MRS2179 mean value)” value at Human P2Y1-R [1] ([Ligand] 1.00E-10 M) was -24.7041 % of maximum MRS2179 mean value and -19.9635 % of maximum MRS2179 mean value and -11.9373 % of maximum MRS2179 mean value and -22.7633 % of maximum MRS2179 mean value and -19.9712 % of maximum MRS2179 mean value. On Human P2Y1-R [1], the “Effect on β-arrestin 2 recruitment / BRET signal between P2Y1-R-Venus and β-arrestin 2-RLuc” value is “behaved as inverse agonists”. Moreover, on Human P2Y1-R [1], the EC50 worked out at 19.4 µM. Also, the “pEC50 ± s.e.m.” value at Human P2Y1-R [1] came to 4.712 ± 0.2838.
For `Nc1ncnc2c1ncn2[C@@H]1O[C@H](COP(=O)(O)OP(=O)(O)O)[C@@H](O)[C@H]1O` [ADP, adenosine diphosphate], on Human P2Y12-R, the “Effect on β-arrestin 2 recruitment” value is “did not trigger β-arrestin 2 recruitment”. In addition, at Human P2Y1-R [2], the “Effect on IP1 production” value is reported as “slightly but significantly potentiated”. Also, in test [3], the “Effect on IP1 levels” value is “significantly increased”.
On to `CNc1nc(I)nc2c1ncn2[C@H]1C[C@H](OP(=O)(O)O)[C@]2(COP(=O)(O)O)C[C@H]12` [MRS2500, 2-iodo-N6-methyl-(N)-methanocarba-2′-deoxyadenosine-3′,5′-bisphosphate], for which the “b-arrestin 2 signaling, Ligand-modulated BRET (% of maximum MRS2179 mean value)” value on Human P2Y1-R [1] ([Ligand] 1.00E-04 M) was -104.002 % of maximum MRS2179 mean value and -94.5729 % of maximum MRS2179 mean value and -88.0915 % of maximum MRS2179 mean value and -87.9506 % of maximum MRS2179 mean value and -95.5776 % of maximum MRS2179 mean value; at Human P2Y1-R [1] ([Ligand] 1.00E-05 M) it was -100.008 % of maximum MRS2179 mean value and -86.7675 % of maximum MRS2179 mean value and -90.0217 % of maximum MRS2179 mean value and -77.5434 % of maximum MRS2179 mean value and -80.2036 % of maximum MRS2179 mean value; at Human P2Y1-R [1] ([Ligand] 1.00E-06 M), -95.5169 % of maximum MRS2179 mean value and -78.4136 % of maximum MRS2179 mean value and -91.3759 % of maximum MRS2179 mean value and -80.0813 % of maximum MRS2179 mean value and -75.5319 % of maximum MRS2179 mean value; on Human P2Y1-R [1] ([Ligand] 1.00E-07 M) it was -75.2707 % of maximum MRS2179 mean value and -41.8369 % of maximum MRS2179 mean value and -76.2614 % of maximum MRS2179 mean value and -66.0129 % of maximum MRS2179 mean value and -61.7221 % of maximum MRS2179 mean value; at Human P2Y1-R [1] ([Ligand] 1.00E-08 M), -7.396 % of maximum MRS2179 mean value and -28.7379 % of maximum MRS2179 mean value and -20.7409 % of maximum MRS2179 mean value and -45.6895 % of maximum MRS2179 mean value and -5.348 % of maximum MRS2179 mean value; on Human P2Y1-R [1] ([Ligand] 1.00E-09 M), -12.4711 % of maximum MRS2179 mean value and -18.0888 % of maximum MRS2179 mean value and -11.5273 % of maximum MRS2179 mean value and -5.043 % of maximum MRS2179 mean value and 9.479 % of maximum MRS2179 mean value. The “b-arrestin 2 signaling, Ligand-modulated BRET (% of maximum MRS2179 mean value)” value at Human P2Y1-R [1] ([Ligand] 1.00E-10 M) was -23.8118 % of maximum MRS2179 mean value and -10.0375 % of maximum MRS2179 mean value and -6.745 % of maximum MRS2179 mean value and -2.51 % of maximum MRS2179 mean value and -4.926 % of maximum MRS2179 mean value. For the same compound, the “Effect on β-arrestin 2 recruitment / BRET signal between P2Y1-R-Venus and β-arrestin 2-RLuc” value on Human P2Y1-R [1] is reported as “behaved as inverse agonists”. For the same compound, the “Signaling bias (β-arrestin 2 versus Gαq protein signaling)” value at Human P2Y1-R [1] (compared to MRS2179, from potencies of Table 1) is “biased inverse agonist”. The same compound gave an EC50 at Human P2Y1-R [1] of 0.0475 µM. Further, the “pEC50 ± s.e.m.” value at Human P2Y1-R [1] is recorded as 7.323 ± 0.1193.
